Experimental data published in paper PMC10458253, “Unraveling the In Vitro Toxicity Profile of Psychedelic 2C Phenethylamines and Their N-Benzylphenethylamine (NBOMe) Analogues” (Pharmaceuticals, 2023).
Counter-ions that a name gives are not always drawn.

What was measured:
[1] = pH 7.4; cited from earlier work
[2] = PAMPA-BBB permeability assay
Excerpt: In the present study we used a Parallel Artificial Membrane Permeation Assay (PAMPA) with a membrane mimicking the BBB phospholipidic composition (PAMPA-BBB) to evaluate and predict passive, transcellular permeability of the mescaline-NBOMe, 25B-NBOMe and 25N-NBOMe drugs.
The PiON inc database software was used for data analysis.

[3] = test system: differentiated SH-SY5Y cells; assay: Intracellular ROS (DCFH-DA probe), differentiated SH-SY5Y; format: cell-based; conditions: positive control, 200 µM, 24 h, vs negative control cells
Protocol: Reactive oxygen species (ROS) production was evaluated using the 2′,7′-dichlorofluorescein diacetate (DCFH-DA) probe. In the cytoplasm, DCFH-DA is hydrolyzed producing 2′,7′-dichlorodihydrofluorescein (DCFH) that, in the presence of ROS, is easily oxidized to the highly fluorescent 2′,7′-dichlorofluorescein (DCF).
(§1) ROS production was evaluated by using the well-known membrane permeable fluorescent probe 2′,7′-dichlorofluorescein diacetate (DCFH-DA). Both cell lines were seeded in 96-well cell culture plates, and pre-incubated with 10 µM DCFH-DA, protected from light, at 37 °C, in a 5% CO2–95% air atmosphere. After 30 min, DCFH-DA was removed, and the cells were exposed to the drugs (0–500 µM for SH-SY5Y cells and 0–1000 µM for HepG2 cells), at 37 °C, in a 5% CO2–95% air atmosphere. Subsequently, after 24 h of exposure, the fluorescence was measured at 485 nm excitation and 530 nm emission wavelengths in a multi-well plate reader (PowerWaveX BioTek Instruments, Winooski, VT, USA). Additionally, tert-butyl hydroperoxide (200 µM, 24 h) was used as a positive control for ROS overproduction. The results were expressed as percentage of control cells. At least four independent experiments were performed, in triplicate.

HepG2 cells = assay: Intracellular ROS (DCFH-DA probe), HepG2; format: cell-based; conditions: HepG2, positive control, 200 µM, 24 h, vs control cells (0 µM)
Protocol: as §1

| SMILES | −Log Pe ± SD [2] | also measured |
| --- | --- | --- |
| CC(=O)Nc1ccccc1 [Acetanilide] | – | CHI (IAM) [1]: 11.57 |
| CC(=O)[C@H]1CC[C@H]2[C@@H]3CCC4=CC(=O)CC[C@]4(C)[C@H]3CC[C@]12C [Progesterone, reference compound] | 4.5 ± 0.44 | – |
| CC(C)NCC(O)COc1cccc2ccccc12 (stereo not drawn) [Propanolol. HCl, reference compound] | 4.6 ± 0.42 | – |
| C=C[C@H]1C[N@@]2CC[C@H]1C[C@@H]2[C@@H](O)c1ccnc2ccc(OC)cc12 [Quinidine. HCl, reference compound] | 4.8 ± 0.39 | – |
| CC(C)(C)OO [t-BHP, tert-butyl hydroperoxide] | – | ROS intracellular levels [3]: significant increase in ROS intracellular levels; ROS intracellular levels (HepG2 cells): significant increase in ROS levels |
